Experiment: In vitro dissolution test, microcentrifuge method, in phosphate buffered saline (PBS) pH 6.5
Format: physicochemical
Procedure: The compositions comprising the CETP inhibitor and concentration-enhancing polymer provide enhanced concentration of the dissolved CETP inhibitor in in vitro dissolution tests. […] An appropriate PBS solution is an aqueous solution comprising 20 mM sodium phosphate (Na2HPO4), 47 mM potassium phosphate (KH2PO4), 87 mM NaCl, and 0.2 mM KCl, adjusted to pH 6.5 with NaOH. An appropriate MFD solution is the same PBS solution wherein additionally is present 7.3 mM sodium taurocholic acid and 1.4 mM of 1-palmitoyl-2-oleyl-sn-glycero-3-phosphocholine. In particular, a composition of the present invention can be dissolution-tested by adding it to MFD or PBS solution and agitating to promote dissolution.
Indeed, for some extremely insoluble CETP inhibitors, in order to identify the MDC achieved it may be necessary to use an amount of test composition such that if all of the CETP inhibitor dissolved, the CETP inhibitor concentration would be 10,000-fold or even more, that of the equilibrium concentration of the CETP inhibitor.
The MDC is taken to be the maximum value of dissolved CETP inhibitor measured over the duration of the test.
Filtration can be conducted using a 13 mm, 0.45 μm polyvinylidine difluoride syringe filter sold by Scientific Resources under the trademark TITAN®. Centrifugation is typically carried out in a polypropylene microcentrifuge tube by centrifuging at 13,000 G for 60 seconds. Other similar filtration or centrifugation methods can be employed and useful results obtained.
The spray-dried dispersions of Examples 6 and 7 were evaluated in an in vitro dissolution test using a microcentrifuge method. In this test, the spray-dried dispersion was added to a microcentrifuge tube for a Drug 2 dose of about 1000 μg/mL (7.2 mg for Example 6, 18 mg for Example 7). The tube was placed in a 37° C. sonicating bath, and 1.8 mL phosphate buffered saline (PBS) at pH 6.5 and 290 mOsm/kg was added. The samples were quickly mixed using a vortex mixer for about 60 seconds. The samples were centrifuged at 13,000 G at 37° C. for 1 minute. The resulting supernatant solution was then sampled and diluted 1:6 (by volume) with methanol and then analyzed by high-performance liquid chromatography (HPLC). The contents of the tubes were mixed on the vortex mixer and allowed to stand undisturbed at 37° C. until the next sample was taken. Samples were collected at 4, 10, 20, 40, 90, and 1200 minutes.
For Control 2, an in vitro dissolution test was performed using the procedures described above except that 1.8 mg of crystalline Drug 2 was used.
In this method, 7.2 mg of each spray-dried dispersion was added to a 2-mL microcentrifuge tube. The tube was placed in a 37° C. sonicating bath, and 1.8 mL of a phosphate-buffered saline (PBS) solution at pH 6.5 and 290 mOsm/kg was added, resulting in a TCmax of 400 μg/mL. The samples were quickly mixed using a combination of vortex mixer and sonication for about 90 seconds. The samples were centrifuged at 13,000 G at 37° C. for 1 minute. The resulting supernatant solution was then sampled and diluted 1:6 (by volume) with methanol and then analyzed by HPLC. The tubes were then mixed on the vortex mixer and allowed to stand undisturbed at 37° C. until the next sample. Samples were collected at 4, 10, 20, 40, 90 and 1200 minutes.
For Control 5, an in vitro dissolution test was performed using the procedure described above, except that 0.72 mg of non-crystalline Drug 3 was placed in a microcentrifuge tube and mixed with 1.8 mL of PBS.
In this method, 15 mg of each SDD was added to a 2-mL microcentrifuge tube. The tube was placed in a 37° C. sonicating bath, and 1.5 mL of a phosphate-buffered saline (PBS) solution at pH 6.5 and 290 mOsm/kg) was added, resulting in a TCmax of 1000 μg/mL. The samples were quickly mixed using a combination of vortex mixer and sonication for about 90 seconds.

[1] = Table 13, Drug 3, PBS, TCmax 400 μg/mL
[2] = PBS pH 6.5, 37° C., TCmax 1000 μg/mL, time 0 min
[3] = PBS pH 6.5, 37° C., TCmax 1000 μg/mL, time 4 min
[4] = PBS pH 6.5, 37° C., TCmax 1000 μg/mL, time 10 min
[5] = PBS pH 6.5, 37° C., TCmax 1000 μg/mL, time 20 min
[6] = PBS pH 6.5, 37° C., TCmax 1000 μg/mL, time 40 min
[7] = PBS pH 6.5, 37° C., TCmax 1000 μg/mL, time 90 min
[8] = Table 16, Drugs 4-9, PBS pH 6.5, 37° C., TCmax 1000 μg/mL

SMILES	AUC [2] [min-μg/mL]	Concentration [2] [ng/mL]	AUC [3] [min-μg/mL]	Concentration [3] [ng/mL]	AUC [4] [min-μg/mL]	Concentration [4] [ng/mL]	AUC [5] [min-μg/mL]	Concentration [5] [ng/mL]	AUC [6] [min-μg/mL]	Concentration [6] [ng/mL]	AUC [7] [min-μg/mL]	Concentration [7] [ng/mL]	AUC90 [8] [min-μg/mL]	Cmax, 90 [8] [ng/mL]	other results
CCCOC(=O)N1c2ccc(C(F)(F)F)cc2[C@@H](N(Cc2cc(C(F)(F)F)cc(C(F)(F)F)c2)C(=O)OC)C[C@H]1CC [Control 5, [2R,4S]4-[(3,5-bis-trifluoromethyl-benzyl)-methoxycarbonyl-amino]-2-ethyl-6-trifluoromethyl-3,4-dihydro-2H-quinoline-1-carboxylic acid propyl ester]	–	–	–	–	–	–	–	–	–	–	–	–	–	–	Concentration (Table 12, Drug 3, PBS pH 6.5, 37° C., 0 min, TCmax 400 μg/mL): 0 ng/mL; Concentration (Table 12, Drug 3, PBS pH 6.5, 37° C., 4 min, TCmax 400 μg/mL): <100 ng/mL; Concentration (Table 12, Drug 3, PBS pH 6.5, 37° C., 10 min, TCmax 400 μg/mL): <100 ng/mL; Concentration (Table 12, Drug 3, PBS pH 6.5, 37° C., 20 min, TCmax 400 μg/mL): <100 ng/mL; Concentration (Table 12, Drug 3, PBS pH 6.5, 37° C., 40 min, TCmax 400 μg/mL): <100 ng/mL; Concentration (Table 12, Drug 3, PBS pH 6.5, 37° C., 90 min, TCmax 400 μg/mL): <100 ng/mL; AUC (Table 12, Drug 3, PBS pH 6.5, 37° C., to 0 min, TCmax 400 μg/mL): 0 min-μg/mL; AUC (Table 12, Drug 3, PBS pH 6.5, 37° C., to 4 min, TCmax 400 μg/mL): <0.4 min-μg/mL; AUC (Table 12, Drug 3, PBS pH 6.5, 37° C., to 10 min, TCmax 400 μg/mL): <1.0 min-μg/mL; AUC (Table 12, Drug 3, PBS pH 6.5, 37° C., to 20 min, TCmax 400 μg/mL): <2.0 min-μg/mL; AUC (Table 12, Drug 3, PBS pH 6.5, 37° C., to 40 min, TCmax 400 μg/mL): <4.0 min-μg/mL; AUC (Table 12, Drug 3, PBS pH 6.5, 37° C., to 90 min, TCmax 400 μg/mL): <9.0 min-μg/mL; AUC90 [1]: <9.0 min-μg/mL; Cmax, 90 [1]: <100 ng/mL
CCOC(=O)N1c2cc(OC)c(OC)cc2[C@@H](N(Cc2cc(C(F)(F)F)cc(C(F)(F)F)c2)C(=O)OC)C[C@H]1C [Control 6, [2R,4S]4-[(3,5-bis-trifluoromethyl-benzyl)-methoxycarbonyl-amino]-6,7-dimethoxy-2-methyl-3,4-dihydro-2H-quinoline-1-carboxylic acid ethyl ester]	0	0	<4	<1000	<10	<1000	<20	<1000	<40	<1000	<90	<1000	<90	<1000	–
CCOC(=O)N1c2cc(CC)c(CC)cc2[C@@H](N(Cc2cc(C(F)(F)F)cc(C(F)(F)F)c2)C(=O)OC)C[C@H]1C [Control 7, [2R,4S]4-[(3,5-bis-trifluoromethyl-benzyl)-methoxycarbonyl-amino]-6,7-diethyl-2-methyl-3,4-dihydro-2H-quinoline-1-carboxylic acid ethyl ester]	0	0	<4	<1000	<10	<1000	<20	<1000	<40	<1000	<90	<1000	<90	<1000	–
CCOC(=O)N1c2cc3c(cc2[C@@H](N(Cc2cc(C(F)(F)F)cc(C(F)(F)F)c2)C(=O)OC)C[C@H]1C)CCC3 [Control 8, [2R,4S]4-[(3,5-bis-trifluoromethyl-benzyl)-methoxycarbonyl-amino]-2-methyl-2,3,4,6,7,8-hexahydro-cyclopenta[g]quinoline-1-carboxylic acid ethyl ester]	–	–	<4	<1000	<10	<1000	<20	<1000	<40	<1000	<90	<1000	<90	<1000	–

More lines, main results first:

AUC [2] [min-μg/mL]	Concentration [2] [ng/mL]	AUC [3] [min-μg/mL]	Concentration [3] [ng/mL]	AUC [4] [min-μg/mL]	Concentration [4] [ng/mL]	AUC [5] [min-μg/mL]	Concentration [5] [ng/mL]	AUC [6] [min-μg/mL]	Concentration [6] [ng/mL]	AUC [7] [min-μg/mL]	Concentration [7] [ng/mL]	AUC90 [8] [min-μg/mL]	Cmax, 90 [8] [ng/mL]	SMILES	other results
0	0	<4	<1000	<10	<1000	<20	<1000	<40	<1000	<90	<1000	<90	<1000	COC(=O)N(Cc1cc(C(F)(F)F)cc(C(F)(F)F)c1)[C@H]1C[C@@H](C2CC2)N(C(=O)OC(C)C)c2ccc(C(F)(F)F)cc21 [Control 10, [2S,4S]4-[(3,5-bis-trifluoromethyl-benzyl)-methoxycarbonyl-amino]-2-cyclopropyl-6-trifluoromethyl-3,4-dihydro-2H-quinoline-1-carboxylic acid isopropyl ester]	–
0	0	<4	<1000	<10	<1000	<20	<1000	<40	<1000	<90	<1000	<90	<1000	CC1(C)Cc2nc(C3CCCC3)c([C@@H](F)c3ccc(C(F)(F)F)cc3)c(-c3ccc(F)cc3)c2[C@@H](O)C1 [Control 11, [3S,5S]2-cyclopentyl-4-(4-fluoro-phenyl)-3-[fluoro-(4-trifluoromethyl-phenyl)-methyl]-7,7-dimethyl-5,6,7,8-tetrahydro-quinolin-5-ol]	–
